Tested on: CD34+ cells
Assay: In vitro transwell migration assay, CXCL12-induced
Assay type: cell-based, human
Conditions: CXCL12 100 ng/ml, 4 hours, CD34+ cells after 3-week culture with cytokines+NA, compared to cytokines alone or non-cultured cells
Protocol: FIG. 2 is a histogram showing the effect of nicotinamide on in-vitro migration of hematopoietic cells. CXCL12 (100 ng/ml)-induced transwell migration of the purified CD34+ cells either before (non-cultured) or after 3-week culture with cytokines and nicotinamide (cytokines+NA) or cytokines alone (cytokines) (n=3, *p<0.02, **p=0.05) was measured as described hereinbelow. Note the enhanced migration of cells cultured in the presence of nicotinamide; Purified CD34+ cells were cultured in culture bags (American Fluoroseal Co., Gaithersburg, Md.) at 1×10^4 cells/ml in MEMα medium, 10% fetal calf serum (FCS) and cytokines: Thrombopoietin (TPO), interleukin-6 (IL-6), FLT-3 ligand and stem cell factor (SCF), each at a final concentration of 50 ng/ml (Perpo Tech, Inc., Rocky Hill, N.J.), with or without 5 mM nicotinamide (NA) (Sigma Aldrich, Milwaukee, Wis.) and incubated at 37° C. in a humidified atmosphere of 5% CO2 in air. […] Until week 3, the cultures were topped weekly with the same volume of fresh medium and then weekly demi-depopulated. Cell counting, colony forming unit (CFUc) assay and immunophenotype analysis were performed as described hereinbelow. […] After 4 hours, cells were collected from both chambers and counted by flow cytometry (FACSsort, Becton Dickinson and Co, San Jose, Calif., USA). […]

NC(=O)c1cccnc1 [nicotinamide]
CXCL12-induced migration: significantly higher

Source: US8846393B2, “Methods of improving stem cell homing and engraftment” (Gamida-Cell Ltd., priority 2005, dated 2014)
